Measured values reported in ChEMBL document CHEMBL4007395 (J Med Chem, 2017).

Experiments:
[1] = Oral bioavailability in Sprague-Dawley rat at 500 mg/kg by LC-MS/MS analysis; assay type: ADME, organism-based; conditions: in vivo
[2] = Inhibition of malate dehydrogenase (unknown origin) using oxaloacetate as substrate preincubated for 5 mins followed by substrate addition by UV-vis spectrophotometric method; parameters: species or system Homo sapiens
[3] = Inhibition of malate dehydrogenase (unknown origin) using oxaloacetate as substrate preincubated for 5 mins followed by substrate addition in presence of nonionic detergent Triton-X-100 by UV-vis spectrophotometric method; parameters: species or system Homo sapiens
[4] = Inhibition of Escherichia coli AmpC beta-lactamase using CENTA as substrate preincubated for 5 mins followed by substrate addition in presence of nonionic detergent Triton-X-100 by UV-vis spectrophotometric method
[5] = Half-life in Tris-HCl buffer at 70 uM at pH 7.5 by UV/Vis spectrophotometric method; assay type: physicochemical
[6] = Apparent permeability in human Caco2 cells; assay type: ADME, cell-based; conditions: Caco-2
Plasma [7] = assay: Drug metabolism in human plasma assessed as curcumin sulfate formation at 3.6 g, po administered as capsule measured at 1 hr post dose by UV-HPLC-MS analysis; assay type: ADME, organism-based; conditions: in vivo
[8] = Plasma concentration in human at 3.6 g, po administered as capsule measured at 1 hr post dose by UV-RP-HPLC method; assay type: ADME, organism-based
[9] = Cmax in human at 12 g, po administered as single dose capsule after 2 hrs by UV-HPLC method; assay type: ADME, organism-based; parameters: dose 12 g, route oral; conditions: in vivo
[10] = Inhibition of HIV-2 protease using anthranilyl-HIV protease as substrate preincubated for 5 mins followed by substrate addition in presence of nonionic detergent Triton-X-100 by fluorescence assay; parameters: species or system Human immunodeficiency virus 2
[11] = Inhibition of Escherichia coli AmpC beta-lactamase using CENTA as substrate preincubated for 5 mins followed by substrate addition by UV-vis spectrophotometric method
[12] = target: Glycogen synthase kinase-3 beta (Rattus norvegicus, UniProt P18266); assay: Inhibition of recombinant rat N-terminal GST-tagged GSK3beta expressed in Escherichia coli assessed as reduction in tau phosphorylation preincubated for 30 mins followed by tau protein addition measured after 1 hr by ELISA
[13] = Drug uptake in human rectal mucosa assessed per gram protein at 4 g/day for 30 days; assay type: ADME; conditions: 720 h
Homo sapiens [14] = species on record: Homo sapiens; assay: Effect on total aberrant foci number in human colon cancer patient at 2 g/day for 30 days during phase IIa study by colonoscopic analysis; assay type: functional
Homo sapiens [15] = species on record: Homo sapiens; assay: Effect on total aberrant foci number in human colon cancer patient at 4 g/day for 30 days during phase IIa trial by colonoscopic analysis; assay type: functional
[16] = Half-life in Tris-HCl buffer at 70 uM at pH 7.2 by UV/Vis spectrophotometric method; assay type: physicochemical
Mus musculus = assay: Cmax in mouse at 100 mg/kg, po after 30 mins; assay type: ADME, organism-based; parameters: dose 100 mg/kg, route oral; conditions: in vivo, 0.5 h
[17] = Drug uptake in human rectal mucosa assessed per gram protein at 2 g/day for 30 days; assay type: ADME; conditions: 720 h
[18] = Half-life in Sprague-Dawley rat at 500 mg/kg, po by LC-MS/MS analysis; assay type: ADME, organism-based; conditions: in vivo
Plasma [19] = assay: Drug metabolism in human plasma assessed as curcumin glucuronide formation at 3.6 g, po administered as capsule measured at 1 hr post dose by UV-HPLC-MS analysis; assay type: ADME, organism-based; conditions: in vivo
[20] = Inhibition of HIV-2 protease using anthranilyl-HIV protease as substrate preincubated for 5 mins followed by substrate addition by fluorescence assay; parameters: species or system Human immunodeficiency virus 2
Plasma [21] = assay: Plasma concentration in human at 8 g/day, po by HPLC/TMS; assay type: ADME, organism-based; conditions: in vivo

Chain of Glycogen synthase kinase-3 beta (P18266 whole entry): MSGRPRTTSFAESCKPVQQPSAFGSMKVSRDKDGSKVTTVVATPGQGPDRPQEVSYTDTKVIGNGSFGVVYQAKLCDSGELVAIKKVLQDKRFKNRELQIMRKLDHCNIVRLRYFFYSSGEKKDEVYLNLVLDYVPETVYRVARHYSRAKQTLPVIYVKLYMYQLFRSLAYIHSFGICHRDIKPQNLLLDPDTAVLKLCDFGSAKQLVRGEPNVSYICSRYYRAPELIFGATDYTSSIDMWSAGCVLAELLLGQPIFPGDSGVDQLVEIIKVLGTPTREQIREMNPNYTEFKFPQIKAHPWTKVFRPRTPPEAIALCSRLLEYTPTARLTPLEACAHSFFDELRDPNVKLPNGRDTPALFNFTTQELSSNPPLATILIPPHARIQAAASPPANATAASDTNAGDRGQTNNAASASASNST

bioavailability [1]: < 1%
IC50 [2]: 9 µM
IC50 [3]: > 30 µM
IC50 [4]: > 30 µM
half-life at 70 µM [5]: 20 min
Papp [6]: 3.18 ×10⁻⁶ cm/s
Drug metabolism (Plasma [7]): 8.9 nmol/L
concentration at 1 h [8]: 11.1 ng/mL
Cmax [9]: 57.6 ng/mL
IC50 [10]: > 100 µM
IC50 [11]: 12 µM
IC50 [12]: 0.066 µM
Drug uptake [13]: 3.8 µg
half-life at 70 µM [16]: < 10 min
Cmax (Mus musculus): 60 nM
Drug uptake [17]: 8.2 µg
half-life [18]: < 5 min
Drug metabolism (Plasma [19]): 15.8 nmol/L
IC50 [20]: 9 µM
Cp (Plasma [21]): 22 to 41 ng/mL
Structure (SMILES): COc1cc(/C=C/C(=O)CC(=O)/C=C/c2ccc(O)c(OC)c2)ccc1O [CURCUMIN]
Activity (Homo sapiens [14]): 0
Activity (Homo sapiens [15]): 6
